Assay results taken from patent US20120122896A1, “2,1,3-BENZOXADIAZOL DERIVATIVES FOR THE INHIBITION OF INFLUENZA A AND B VIRUS AND RESPIRATORY SYNCYTIAL VIRUS REPLICATION” (PIKE PHARMA GMBH, priority 2009, published 2012).
Read-outs that look alike come from different tables or passages of the source.

Key:
[1] = system: RSV (Long strain); experiment: RSV induced cell death reduction in HEp-2 cells; assay type: cell-based, respiratory syncytial virus; details: serial dilution 100 to 0.14 μM, 72 h
[2] = target: interaction between PB1 and PA (Influenza A virus, UniProt P03433); experiment: biochemical; assay type: binding
[3] = system: influenza virus (A/WSN/33); experiment: plaque reduction assay, influenza virus in MDCK cells; assay type: cell-based
[4] = system: HA-tagged PA from FluB; experiment: competitive ELISA, PB1 peptide / PA of FluB; assay type: binding, influenza B virus; details: competitor peptides 0.048 to 3000 nM; […]; standard deviation in parenthesis; * highest concentration used
[5] = system: HA-tagged PA of FluA

Row | Compound | IC50 [4] | IC50 ([5]; read-out: IC50 (nM) PA (FluA)) | also measured
1 | Nc1nc(Sc2ccc([N+](=O)[O-])c3nonc23)c2ncn(C3OC(CO)C(O)C3O)c2n1 (stereo not drawn) [PKE138, 2-[2-amino-6-[(4-nitro-2,1,3-benzoxadiazol-7-yl)sulfanyl]purin-9-yl]-5-(hydroxymethyl)oxolane-3,4-diol] | – | – | RSV activity, Maximum inhibition (in words) [1]: inactive; IC50 ([2]; calculated from inhibition at maximum obtainable concentration where solubility too low, read-out: IC50 [μM] (ELISA)): 250 µM; Active in ELISA ([2]; prescreening): Yes; inhibition of the replication of influenza virus, particularly influenza A (summary in words) [3]: effectively inhibited
2 | MDVNPFLLFLKVPAQ [PB11-15 AT5F] | 750 nM | 2.84 nM | –
3 | MDVNPTLLFLK [Compound 1-11] | – | – | IC50 ([5]; read-out: IC50 (nM) of FluA-derived PB1 peptides (truncations)): 900 nM
4 | MDVNPTLLFLKVPAQ [PB11-15 A] | > 3000 nM | – | –
5 | MDVNPWLLFLKVPAQ [PB11-15 AT6W] | 628 nM | 3.4 nM | –
6 | MDVNPYLLFLKVPAQ [PB11-15 AT5Y] | 107 nM | 21.6 nM | –
